Reference: PMC7718273 (Scientific Reports, 2020)
≈ marks a conversion by molar mass, not a printed value. Where “and” joins values, the source holds several entries; their conditions need not be identical. Equal values may be shown once. Read-outs that look alike come from different tables or passages of the source.

How the values were obtained:
endogenous mouse FAP = system: T1, endogenous mouse FAP; test: Acute study using ob/ob mice: plasma FAP activity; assay type: in vivo; details: single oral dose 20 or 50 mg/kg, in 1 h, maintained up to 9 h
T1 construct: from tissue; host or cells: mouse serum/plasma (ob/ob and C57BL/6J mice)

[1] = Microsomal stability, mouse; assay type: in vitro ADME; details: liver microsomes, pH 7.4, mouse (M), 0.5 mg/mL, NADPH, read-out: Microsomal stability (% remaining at 60 min)
Method: Aliquots were then transferred in duplicate to: (i) a final concentration plate that was immediately quenched with 23.6 ng/mL internal standard (IS, chlorpropamide) in acetonitrile (ACN) or (ii) tubes, which were centrifuged for 5 min at 4℃ (14,000 rpm). The samples were subjected to LC–MS/MS analysis on an AB Sciex 4000 Q Trap hybrid triple quadrupole linear ion-trap MS (AB Sciex, Framingham, MA) coupled to an Agilent 1200 HPLC (Agilent Tech. Santa Clara, CA) with a reverse-phase Kinetex XB-C18 column (2.1 × 100 mm, 2.6 µm; Phenomenex). Mobile phases were comprised of 0.1% formic acid (FA) in water (A) and 0.1 FA in ACN (B). Data analysis was performed using […] (Ver. 1.6.1).

[2] = Pharmacokinetic study in monkeys; assay type: in vivo; details: male, cynomolgus, cynomolgus monkey, plasma, inhaled or intranasal; for AUC(0-t): read-out: AUC(0–6 h)
Method: Six male cynomolgus monkeys (4.5–5.5 kg) were obtained from Sichuan Primed Shines Bio-tech Co., Ltd (Chengdu, Sichuan, China) and maintained at 18–26 °C, a relative humidity of 40%-70%, a minimum of 8 air changes/h, and a 12-h light/12-h dark cycle. […] Plasma sample preparations and analysis were the same as described in mice study.

ob/ob mice = test: Chronic study using ob/ob mice (4 weeks)
Text: (a) Nonfasting blood glucose levels in ob/ob mice. […] (g) The plasma levels of ALT (GPT), AST (GOT), TG, total cholesterol and NEFA in ob/ob mice. […] (i) Relative expression of genes related to intrahepatic lipogenic gene (GCK), fatty acid and TG synthesis genes (FASN, SREBP and APOC3, LIPIN1), β-oxidation genes (CPT1α, MCAD and PPARα) and FGF21 related genes (ATF4, CHOP, FGF21 and β-klotho) in liver and FGF21 related genes (AdipoQ and β-klotho) in white adipose tissue of ob/ob mice.
During the observation period, mice were monitored for glucose profiles and weighed. […] Under anesthesia, blood was promptly collected by orbital bleeding and then harvested. Liver tissue was then collected. Serum ALT, AST, TG, total cholesterol, and NEFA levels were assessed by KNOTUS (Incheon, Korea).

PREP = target: T2, PREP (Homo sapiens, UniProt P48147); test: PREP activity, fluorometric assay with AMC substrate; assay type: biochemical
T2 construct: purchased R&D Systems 4308-SE
T2 sequence (P48147 whole entry): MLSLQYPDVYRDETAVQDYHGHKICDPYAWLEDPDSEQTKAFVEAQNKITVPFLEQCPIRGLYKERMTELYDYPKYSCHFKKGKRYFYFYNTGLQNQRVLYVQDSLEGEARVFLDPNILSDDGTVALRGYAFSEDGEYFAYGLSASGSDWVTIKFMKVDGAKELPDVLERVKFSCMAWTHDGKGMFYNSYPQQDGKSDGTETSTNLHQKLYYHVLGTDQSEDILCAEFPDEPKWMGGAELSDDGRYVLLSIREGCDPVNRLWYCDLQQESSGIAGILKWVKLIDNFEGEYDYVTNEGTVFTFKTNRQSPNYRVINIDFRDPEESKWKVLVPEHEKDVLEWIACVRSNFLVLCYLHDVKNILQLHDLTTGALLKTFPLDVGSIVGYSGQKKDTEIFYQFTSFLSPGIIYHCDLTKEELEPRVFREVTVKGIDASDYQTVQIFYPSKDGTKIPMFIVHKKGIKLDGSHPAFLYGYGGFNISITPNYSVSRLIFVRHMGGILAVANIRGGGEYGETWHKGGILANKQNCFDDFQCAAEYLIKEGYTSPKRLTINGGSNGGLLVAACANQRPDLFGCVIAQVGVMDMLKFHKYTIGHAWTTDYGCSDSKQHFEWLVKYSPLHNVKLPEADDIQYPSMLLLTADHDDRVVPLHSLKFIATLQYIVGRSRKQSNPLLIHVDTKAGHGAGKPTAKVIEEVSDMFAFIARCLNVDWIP
Method: (§1) Recombinant human PREP (hPREP) (catalog no. 4308-SE), hDPP2/7 (catalog no. 3438-SE), hDPP9 (catalog no. 5419-SE), hFAP (catalog no. 3715-SE), and hDPP4 (catalog no. 9168-SE) proteins were from R&D Systems (Minneapolis, MN). Human FGF21 (catalog no. CRF159C) was from Cell Science (Newburyport, MA).
(§2) FAP enzyme activities were assayed in 20 mM Tris/HCl, 0.1 M NaCl, 1 mM EDTA (pH 8.0) in the presence of 40 μM Suc-Gly-Pro-Leu-Gly-Pro-AMC (#I-1350.0100, BACHEM, Bubendorf, Switzerland) and hFAP in a total volume of 100 µL. […] The inhibitor concentrations ranged from 100 μM to 0.03 nM, and its IC50 values were computed with commercially available curve-fitting programs such as the SigmaPlot. Other protease activities were determined in a similar manner.

[3] = Plasma protein binding, rat; assay type: in vitro ADME; details: rat (R), read-out: Plasma protein binding (% bound) (converted)
Method: Protein binding was conducted as described. Compound solutions prepared in DMSO were diluted in phosphate buffer (final concentration: 1 µg/mL), and added into human plasma (total volume: 1 mL). Aliquots were then transferred in duplicate to: (i) a final concentration plate that was immediately quenched with 23.6 ng/mL internal standard (IS, chlorpropamide) in ACN, (ii) a degradation control, which was placed in a water bath at 37℃ for 4 h, and (iii) ultracentrifuge tubes, which were centrifuged for 5 min at 4℃ (14,000 rpm). All reactions were stopped by the addition of ACN containing 23.6 ng/mL chlorpropamide. The samples were subjected to LC–MS/MS analysis.

Kinetic solubility = assay type: physicochemical; details: 22 °C, kinetic from dmso stock
Method: Kinetic solubility was conducted as described. […] The samples were agitated for 2 h using a plate shaker (500 rpm, 22℃). Approximately 150 µL of the resulting supernatant was transferred to a 96-well analysis plate and the calibration and test samples were analyzed by HPLC with a diode array detector (Agilent 1200 HPLC) comprising a reverse-phase Kinetex XB-C18 column (2.1 × 100 mm, 2.6 µm; Phenomenex). Mobile phases were composed of 0.1% FA in water (A) and 0.1% FA in ACN (B).

[4] = Pharmacokinetic study in rats; assay type: in vivo; details: male, Sprague-Dawley, plasma, rat, oral 10 mg/kg
Text: Six male Sprague–Dawley rats (7-week-old, 240–250 g) were obtained from Orient Bio INC. (Seongnam, Gyeonggi-do, Korea) and maintained at 22℃ on a 12-h light/12-h dark cycle with free access to water. All animals were maintained under such conditions for a minimum of 2 weeks prior to initiation of the studies. […] Plasma sample preparations and analysis were the same as described in mice study.

hFAP = target: T3, hFAP (Homo sapiens, UniProt Q12884); test: FAP enzyme activity, fluorometric assay with AMC substrate; assay type: biochemical
T3 construct: purchased R&D Systems 3715-SE
T3 sequence (Q12884 whole entry): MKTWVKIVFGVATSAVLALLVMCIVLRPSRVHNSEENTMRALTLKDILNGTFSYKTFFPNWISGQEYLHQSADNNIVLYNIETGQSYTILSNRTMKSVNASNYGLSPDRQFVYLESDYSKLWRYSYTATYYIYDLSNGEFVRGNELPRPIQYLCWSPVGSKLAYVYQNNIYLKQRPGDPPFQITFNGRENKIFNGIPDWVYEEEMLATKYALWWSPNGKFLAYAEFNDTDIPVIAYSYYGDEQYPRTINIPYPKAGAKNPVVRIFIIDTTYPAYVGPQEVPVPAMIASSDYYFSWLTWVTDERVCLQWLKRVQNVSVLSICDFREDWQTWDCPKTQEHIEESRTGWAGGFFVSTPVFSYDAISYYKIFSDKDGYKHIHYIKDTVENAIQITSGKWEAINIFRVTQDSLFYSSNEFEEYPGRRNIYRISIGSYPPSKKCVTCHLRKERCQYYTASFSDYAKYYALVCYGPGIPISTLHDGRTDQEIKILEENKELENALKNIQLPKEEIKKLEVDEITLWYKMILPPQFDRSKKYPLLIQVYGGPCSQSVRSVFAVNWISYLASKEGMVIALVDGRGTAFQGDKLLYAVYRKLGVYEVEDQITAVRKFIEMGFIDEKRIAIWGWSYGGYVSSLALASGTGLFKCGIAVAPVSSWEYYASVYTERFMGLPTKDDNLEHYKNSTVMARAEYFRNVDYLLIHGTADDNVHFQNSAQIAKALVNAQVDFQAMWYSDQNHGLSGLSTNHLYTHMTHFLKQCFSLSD
Method: as §1, §2

FAP = test: In vivo study using cynomolgus monkeys: plasma FAP activity; parameters: species or system cynomolgus monkey; details: 50 mg/kg intranasal
recombinant human FAP = system: T4, recombinant human FAP; test: FAP-mediated cleavage of hFGF21 in cell-free system (SDS-PAGE/immunoblot); assay type: biochemical; details: hFGF21 200 nM, hFAP 50 nM, SDS-PAGE
T4 construct: purchased R&D Systems 3715-SE

## N#Cc1ccc(Cc2nc(C(=O)NCC(=O)N3CC(F)(F)C[C@H]3C#N)cs2)cc1 [BR103354, (S)-N-(2-(2-cyano-4,4-difluoropyrrolidin-1-yl)-2-oxoethyl)-2-(4-cyanobenzyl)thiazole-4-carboxamide]
Endogenous mouse FAP
  inhibition of plasma FAP activity: more than 70%
[1]
  remaining at 1 h, 1 µM: 98%
[2]; monkey, 10 mg/kg intranasally
  Cmax: 420 ng/mL
  Tmax: 2.3 h
  AUC(0-t): 1200 ng·h/mL
[2]; monkey, 10 mg/kg intranasally, read-out: T1/2 (converted)
  half-life: 1.3 h
[2]; monkey, 30 mg/kg intranasally
  Cmax: 2000 ng/mL
  Tmax: 2.3 h
  AUC(0-t): 6400 ng·h/mL
[2]; monkey, 30 mg/kg intranasally, read-out: T1/2 (converted)
  half-life: 2.8 h
[2]; monkeys, 10/30 mg/kg, read-out: half-life (T1/2), range over doses
  half-life: 1.3 to 2.8 h
[2]; monkeys, dose not given in the sentence (10/30 mg/kg)
  Tmax: 2.3 h
ob/ob mice; 50 mg/kg
  glucose tolerance (oral glucose tolerance test): improved glucose tolerance significantly
ob/ob mice; 4 weeks
  FGF21, ATF4 and CHOP mRNA expression in liver: increased
  liver TG content (Oil red O staining): decreased
ob/ob mice; 4 weeks (data not shown)
  body weight between treatments: no change
ob/ob mice; 4 weeks, vs vehicle
  ERK phosphorylation in adipose tissues: increased
  Serum alanine aminotransferase (ALT): significantly reduced
  aspartate aminotransferase (AST): significantly reduced
  non-esterified free fatty acid (NEFA) levels: unaltered
  serum TG: unaltered
  total cholesterol: significantly reduced
ob/ob mice; 20 and 50 mg/kg once daily p.o., from 2 weeks, vs vehicle (P < 0.01)
  nonfasting blood glucose: significantly decreased
ob/ob mice; 20 and 50 mg/kg, week 4
  increase of total form of serum FGF21: approximately 1.4 fold
ob/ob mice; after 4 weeks of treatment
  adiponectin level in white adipose tissues: increased
  fasting blood glucose levels: significantly reduced
  fasting body weights: significantly reduced
  insulin levels: significantly reduced
  liver weights: significantly reduced
PREP
  IC50: 387 nM
[3]
  fraction unbound at 1 µg/mL: 0.4
Kinetic solubility; pH 3.5, aqueous buffer
  solubility kinetic at 2 h: 81 µg/mL (≈ 195 µM)
Kinetic solubility; simulated gastric fluid, pH 1.0
  solubility kinetic at 2 h: 79 µg/mL (≈ 190 µM)
Kinetic solubility; phosphate buffer, pH 7.4, aqueous buffer
  solubility kinetic at 2 h: 78 µg/mL (≈ 188 µM)
[4]
  Cmax: 4400 ng/mL
  Tmax: 1.1 h
  half-life: 3.5 h
[4]; read-out: AUC(0–6 h)
  AUC(0-t): 19700 ng·h/mL
hFAP; 40 μM Suc-Gly-Pro-Leu-Gly-Pro-AMC, 60 min at 37 °C, read-out: IC50 (nM) FAP
  IC50: 14 nM
hFAP; various assays: SDS-PAGE shift, AMC-coupled substrate, serum samples from different species, read-out: IC50 values on FAP, all measurements
  IC50: 10 to 30 nM
FAP; cynomolgus monkeys (n = 3), range of individual animals
  inhibition of FAP activity, maximal: 65–83%
FAP; cynomolgus monkeys, 50 mg/kg
  time of maximal effect on FAP activity and intact FGF21: 1 h and 2 h
Recombinant human FAP
  concentration from which FAP-mediated hFGF21 cleavage was inhibited: 0.4 µM
